Tests used:
[1] = Chromatographic log D / property forecast index; format: physicochemical
[2] = Permeability (Papp); format: in vitro ADME; settings: not told
[3] = target: T1, human BCL6 BTB-POZ domain (BCL6 co-repressor peptide) (Homo sapiens, UniProt P41182, C67R/C84N/C8Q); test: BCL6 TR-FRET assay, BCOR peptide displacement; format: binding; settings: read-out: pIC50 Human TR-FRET BCL6 co-repressor (converted)
T1 construct: BCL6-Flag-6H-Avi (5-129) C8Q, C67R, C84N proteins; Flag (C); 6H (His6) (C); made in house; host or cells: E. coli
Procedure: Human, mouse and rat BCL6-Flag-6H-Avi (5-129) C8Q, C67R, C84N proteins were expressed in E. coli according to standard procedures and purified on Ni-NTA, followed by ion exchange on a Source 30Q column and size exclusion on an Superdex 200 column in a buffer of 20 mM Tris, 250 mM NaCl, 5 mM DTT, 5% glycerol, pH 8.5. All protein purities were estimated to be >90% by SDS-PAGE and the expected masses were confirmed by MS analysis. For TR-FRET assay protein was enzymatically biotinylated by treatment of protein at 100 µM with a 2 fold molar excess of biotin in the presence of 2 mM ATP and 1 µM BirA enzyme in a buffer of 50 mM bicine pH 8.3, 10 mM MgCl2 at 30 °C for 1 hour, followed by extensivedialysis against 50 mM Tris-Cl pH 8.0, 100 mM NaCl, 1 mM DTT using a 3.5 kDa cut-off membrane. Biotinylation was confirmed by MS analysis and concentration was determined by Bradford assay, after which protein was stored in aliquots at -80 °C.
Acceptor-labelled SMRT peptide H2N-[…](D2)-OH was dissolved in water by mass to give a 500 µM stock solution which was stored at -20 °C. Acceptor-labelled NCOR peptide H2N-[…](Alexa Fluor 647)-OH and acceptor-labelled BCOR peptide H2N-[…](Alexa Fluor 647)-OH were dissolved to a nominal concentration of 1 mM in DMSO, and stock solution concentration was determined by absorbance at 650 nm using an extinction coefficient of 270,000 M-1cm^-1. […]

[4] = tested on: TNP-specific IgM and IgG responses; test: TNP-KLH immunization model, serum anti-TNP antibodies; format: in vivo, mouse
Procedure: Male CD1 mice (30–40 g, 8–9 weeks of age) were randomized into study treatment groups, housed individually and allowed to acclimatize under standard laboratory conditions for a minimum of 5 days prior to commencement of the study. Mice received food and water ad libitum. The experiment was performed in a certified dedicated in vivo experimental laboratory at the GlaxoSmithKline Medicines Research Centre, Stevenage, United Kingdom. The four treatment groups were (1) unimmunized and untreated (naive group) (n = 4); (2) intraperitoneal vehicle (n = 13), (3) GSK137 15 mg/kg (n = 14), and (4) GSK137 30 mg/kg (n = 14). Groups (2) to (4) were given intraperitoneal immunization with TNP–KLH (100 μg) on day 0, vehicle was 1% methylcellulose in water + 0.1% sodium lauryl sulphate, and compound or vehicle was given to groups (2) to (4) by oral gavage three times per day from day −1 to day +12. Blood samples were collected by tail vein for measurement of compound, IgM and IgG levels on days 0, 5, 8, and 12 ahead of immunization/first daily dose. On day 8, blood samples were also taken (n = 7) at 0.5, 1.5, 3, 5, or 7 h after first daily dose. On day 12, spleens were collected, weighed, and placed into Dulbecco's modified Eagle's medium on wet ice for analysis by flow cytometry.
For antibody measurements, TNP–bovine serum albumin–coated plates were blocked, and then, standards or serum samples diluted 1:1000 or 1:2500 were incubated for 2 h at room temperature before biotinylated antimouse IgG or IgM antibodies were allowed to bind for 1 h at room temperature and detected using streptavidin-bound horseradish peroxidase incubated for 30 min, followed by the addition of 3,3′,5,5′-tetramethylbenzidine substrate for 15 min. The reaction was stopped, and the plates read at 450 nm by spectrophotometry. Plates were washed between each incubation step to remove unbound reagent. Data analysis was carried out in GraphPad Prism 5 (GraphPad Software, Inc) software using a four-parameter logistic fit of the standards response.

## Cc1ncccc1[C@H]1C[C@@H](c2cccc3nc(N)ccc23)Nc2c(F)cnn21 [GSK137, 5-((5S,7R)-3-Fluoro-7-(2-methylpyridin-3-yl)-4,5,6,7-tetrahydropyrazolo[1,5-a]pyrimidin-5-yl)quinolin-2-amine]
[1]; determined chromatographically, read-out: Chrom LogD
  chromatographic logD: 2.3
[1]; log D modified for the number of aromatic rings
  PFI (property forecast index): 6.3
[2]
  Papp: 8.6 ×10⁻⁶ cm/s
[3]
  IC50: 25.1 nM
[4]; 15 mg/kg orally TID, day 12, p = 0.0027
  reduction of mean TNP-specific IgM levels vs vehicle: 43%
[4]; 15 mg/kg orally TID, day 12, p = 0.0056
  reduction of mean TNP-specific IgG levels vs vehicle: 58%
[4]; 30 mg/kg orally TID, day 12, p < 0.0001
  reduction of mean TNP-specific IgM levels vs vehicle: 58%
[4]; 30 mg/kg orally TID, day 12, p = 0.0023
  reduction of mean TNP-specific IgG levels vs vehicle: 66%
[4]; 15 and 30 mg/kg, day 5 or day 8
  inhibition of TNP-specific IgM level: did not inhibit
[4]; 15 and 30 mg/kg, day 8
  inhibition of serum TNP-specific IgG levels: did not inhibit
